The values below come from ChEMBL document CHEMBL1201862, “PubChem BioAssay data set” (2004).

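1) Cells in 96-well plates. 2) Compound, 48 h, 5 concentrations. 3) Linear interpolation between surrounding doses. 4) Unreached endpoint = highest concentration. The concentration for 50% growth inhibition is given as GI50.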 The source made the active and inactive calls. Cut-off read from the data, not from the text of the source: active = GI50 up to about 1.1 µM and inactive = higher.

Test in all cases: inhibition of tumour cell growth, NCI panel, 48 h
The subject of assay [1] is A549.
Assay [2] has as its system CCRF-CEM.
For assay [3], the system named is EKVX.
The subject of assay [4] is HCC 2998.
For assay [5], the system named is HCT-116.
The test system of assay [6] is HCT-15.
The subject of assay [7] is HOP-92.
Assay [8] has as its system K562.
Assay [9] has as its system MOLT-4.
Assay [10] relates to OVCAR-5.
The test system of assay [11] is RXF 393.
The subject of assay [12] is SF-268.
Assay [13] relates to SF-539.
Assay [14] concerns SK-MEL-28.
Assay [15] deals with SN12C.
Assay [16] has as its system SW-620.
The subject of assay [17] is UO-31.
In assay [18] the test system is U-251.
In assay [19] the test system is SK-OV-3.

With `O=C(Nc1ccccc1)N1C(c2ccccc2)=N[C@@H](c2ccccc2)[C@@H]1c1ccccc1`, the GI50 was 21.2 µM (inactive) in assay [1]; 22.6 µM (inactive) in assay [2]; 43.7 µM (inactive) in assay [3]; 18.5 µM (inactive) in assay [4]; 17.6 µM (inactive) in assay [5]; 23.8 µM in [6]. The GI50 in [7] is 18.3 µM (inactive); in assay [8] it was 17.7 µM (inactive); in [9] it was 19.1 µM (inactive); in assay [10], 19.3 µM (inactive); in assay [11], 15.2 µM (inactive); in [12], 22.3 µM (inactive). For the same compound, the GI50 in assay [13] was 18.6 µM (inactive); in assay [14] it was 15.6 µM (inactive); in [15] it was 21.9 µM (inactive); in assay [16], 18.8 µM (inactive); in [17] it was 16.1 µM (inactive).

In the case of `C[C@]12CC[C@H]3[C@@H](CCC4=CC(=O)C=C[C@@]43O)[C@@H]1CCC2=O`, the GI50 is 62.1 µM (inactive) in [1]; 26.4 µM (inactive) in assay [2]; 70.8 µM (inactive) in assay [3]; > 100 µM (inactive) in assay [4]; > 100 µM (inactive) in [5]; 56 µM in assay [6]. For the same compound, the GI50 was 27.9 µM (inactive) in [7]; 83.9 µM (inactive) in assay [8]; 27.2 µM (inactive) in [9]; > 100 µM (inactive) in assay [10]; > 100 µM (inactive) in assay [11]; > 100 µM (inactive) in [13]. The GI50 in assay [14], in [15], in assay [16], in assay [18] and in [17] was > 100 µM (inactive) each time.

Regarding `CC(=O)O[C@H]1CC[C@@]2(C)C(=CC[C@@H]3[C@@H]2CC[C@]2(C)c4c(cc(C#N)c(=N)n4C(C)=O)C[C@@H]32)C1`, the GI50 is 23 µM (inactive) in [1]; 3.6 µM (inactive) in assay [2]; 15.9 µM (inactive) in assay [3]; 23.2 µM (inactive) in assay [4]; 14.8 µM (inactive) in assay [5]; 15.2 µM in assay [6]. The GI50 in assay [7] was 14.7 µM (inactive); in [8], 4.06 µM (inactive); in assay [9], 12.2 µM (inactive); in assay [10] it was 27.4 µM (inactive); in assay [11], 22.6 µM (inactive); in assay [12] it was 27.9 µM (inactive). Further, the GI50 is 18.7 µM (inactive) in assay [14]; 6.7 µM (inactive) in [19]; 17.4 µM (inactive) in assay [15]; 19.4 µM (inactive) in assay [16]; 29 µM (inactive) in assay [18]; 22 µM (inactive) in assay [17].

On to `c1ccc(C2=Nc3cccc4cccc(c34)N2)cc1`, for which the GI50 in [1] was 56.9 µM (inactive); in [2], 3.82 µM (inactive); in assay [3] it was > 51.1 µM (inactive); in [4], 43.9 µM (inactive); in assay [5] it was 23.3 µM (inactive); in assay [6], 28.6 µM. In addition, the GI50 in assay [7] is 24.4 µM (inactive); in assay [8], 32 µM (inactive); in assay [10], 69.5 µM (inactive); in [11], 22 µM (inactive); in assay [12], 44.8 µM (inactive); in [13] it was 56.2 µM (inactive). Also, the GI50 was > 79.1 µM (inactive) in [14]; > 100 µM (inactive) in assay [19]; > 78.7 µM (inactive) in [15]; 20.4 µM (inactive) in [16]; > 100 µM (inactive) in [18]; 21.3 µM (inactive) in [17].

`N#Cc1c(-c2nc3ccccc3s2)c(=O)oc2cc(O)ccc12`: the GI50 was 26.9 µM (inactive) in [1]; 25.4 µM (inactive) in assay [2]; 39.6 µM (inactive) in [3]; 30.3 µM (inactive) in assay [4]; 31.5 µM (inactive) in assay [5]; 27.1 µM in [6]. For the same compound, the GI50 in assay [7] was 3.52 µM (inactive); in assay [8] it was 31.8 µM (inactive); in [9] it was 28 µM (inactive); in assay [10], 52 µM (inactive); in assay [11], 43.6 µM (inactive); in assay [12] it was 48.6 µM (inactive). Also, the GI50 in assay [13] was > 100 µM (inactive); in assay [14], 41.1 µM (inactive); in assay [15], 42.3 µM (inactive); in [16], 30.8 µM (inactive); in assay [18], 18 µM (inactive); in [17] it was 22 µM (inactive).

`CCOP(=O)(Nc1ccc(-c2ccc(N)cc2)cc1)OCC`: the GI50 in assay [1] is > 100 µM (inactive); in [3] it was 38.9 µM (inactive); in assay [4], > 100 µM (inactive); in assay [5], 99.8 µM (inactive); in [6], above 100 µM; in assay [7] it was > 100 µM (inactive). For the same compound, the GI50 is > 100 µM (inactive) in [8]; > 100 µM (inactive) in assay [9]; 51.6 µM (inactive) in assay [10]; 35.2 µM (inactive) in [11]; > 100 µM (inactive) in assay [12]; > 100 µM (inactive) in assay [14]. Also, the GI50 in [19], in assay [18] and in [17] was > 100 µM (inactive) throughout.

For the compound `COc1cc(C2S/C(=C/c3ccccc3)C(=O)N2c2ccccn2)cc(OC)c1OC` (stereo unspecified), the GI50 in [1] is 18.5 µM (inactive); in assay [2] it was 3.57 µM (inactive); in assay [3], 24.4 µM (inactive); in assay [4], 15.7 µM (inactive); in assay [5] it was 7.16 µM (inactive); in assay [6], 12.8 µM. Further, the GI50 in [7] is 8.3 µM (inactive); in [8], 11.9 µM (inactive); in assay [9], 9.55 µM (inactive); in assay [10] it was 20.8 µM (inactive); in assay [11], 10 µM (inactive); in [12], 15.2 µM (inactive). For the same compound, the GI50 in [14] was 23 µM (inactive); in assay [19] it was 28.2 µM (inactive); in [15], 15.3 µM (inactive); in assay [16], 15.3 µM (inactive); in [18] it was 10.2 µM (inactive); in assay [17], 13.5 µM (inactive).

Consider `CCOC(=O)COc1ccc(/C=C/C(=O)c2ccc(OC)cc2)cc1`, for which the GI50 in assay [1] is 58.1 µM (inactive); in assay [2], 20.9 µM (inactive); in [3] it was 27.8 µM (inactive); in assay [4], 23.7 µM (inactive); in assay [5], 21.3 µM (inactive); in assay [6], 24.4 µM. In addition, the GI50 in assay [7] is 16.6 µM (inactive); in assay [8], 40.6 µM (inactive); in assay [9], 42.9 µM (inactive); in assay [10], 37.4 µM (inactive); in assay [11], 18.1 µM (inactive); in assay [12], 22.3 µM (inactive). Also, the GI50 is 19.6 µM (inactive) in assay [13]; 19.3 µM (inactive) in assay [14]; 19 µM (inactive) in [15]; 20.7 µM (inactive) in assay [16]; 14.3 µM (inactive) in assay [18]; 19.3 µM (inactive) in assay [17].

Take `COC(=O)C1CCC(=S)N1C(=O)OCc1ccccc1` (stereo unspecified): the GI50 in assay [1] is 71 µM (inactive); in [2] it was 3.61 µM (inactive); in assay [3] it was 49 µM (inactive); in assay [4] it was 62.1 µM (inactive); in [5] it was 83.9 µM (inactive); in assay [6], 92.7 µM. Moreover, the GI50 in [7] was > 100 µM (inactive); in assay [8] it was > 100 µM (inactive); in assay [9], > 100 µM (inactive); in assay [10] it was > 100 µM (inactive); in [11], 28.4 µM (inactive); in [12], 98.6 µM (inactive). Also, the GI50 was > 100 µM (inactive) in assay [14]; > 100 µM (inactive) in assay [19]; 83.2 µM (inactive) in assay [16]; 81.8 µM (inactive) in assay [18]; 95.7 µM (inactive) in assay [17].

As for `O=C(COC(=O)c1cccc2c(=O)c3ccccc3[nH]c12)Nc1ccc(C(=O)O)cc1`, the GI50 is > 100 µM (inactive) in assay [1]; 69.5 µM (inactive) in [2]; > 100 µM (inactive) in assay [3]; > 100 µM (inactive) in [4]; 84.7 µM (inactive) in [5]; > 100 µM (inactive) in assay [7]. In addition, the GI50 in assay [8] is 70.6 µM (inactive); in assay [9], 37.8 µM (inactive); in assay [11], 46.8 µM (inactive); in assay [12], > 100 µM (inactive); in assay [13] it was > 100 µM (inactive); in assay [14], > 100 µM (inactive). For the same compound, the GI50 is > 100 µM (inactive) in assay [19]; > 100 µM (inactive) in assay [15]; > 100 µM (inactive) in assay [16]; > 100 µM (inactive) in assay [18]; 71.3 µM (inactive) in [17].

For `O=C1NC2=NN=C(c3ccc(Br)cc3)CN2NC12c1ccccc1-c1ccccc12`, the GI50 was > 100 µM (inactive) in assay [1]; 3.05 µM (inactive) in assay [2]; > 100 µM (inactive) in [3]; > 100 µM (inactive) in assay [4]; > 100 µM (inactive) in assay [5]; above 100 µM in assay [6]. The GI50 in assay [7], in [8], in assay [10], in assay [11], in assay [12] and in assay [13] was > 100 µM (inactive) throughout. Besides, the GI50 in assay [14], in assay [19], in assay [15], in assay [16], in [18] and in assay [17] was > 100 µM (inactive) in each case.
